According to patent US7837757B2, “Enhanced abscisic acid and fertilizer performance” (Valent BioSciences Corporation, priority 2007, dated 2010):
Several values for one entry are separate records, joined by “and”; a condition that tells them apart may be missing. Equal entries are not always repeated. Structures can show the parent of a compound that is named as a salt.

Test system: tomato leaf transpiration
Assay: tomato leaf transpiration inhibition (porometer, normalized to water-sprayed plants)
Format: in vivo, Tomato (variety: Rutgers)

For `CC1=CC(=O)CC(C)(C)[C@@]1(O)/C=C/C(C)=C\C(=O)O` [ABA ammonium salt, Ammonium Salt of (S)-(+)-Abscisic Acid], the “Transpiration rate (% of control)” value (in vivo) was 57 % of control and 67 % of control and 78 % of control and 76 % of control and 88 % of control and the “Transpiration rate (% of control), Average” value (in vivo) was 68 % of control and 81 % of control.

With `[Ca+2].[Cl-].[Cl-]` [CaCl2, calcium chloride] the “Transpiration rate (% of control)” value (in vivo) was 97 % of control and 101 % of control and 98 % of control and the “effect on tomato leaf transpiration (in words)” value (in vivo) was “did not affect tomato leaf transpiration”.

With `NC(N)=O` [Urea, urea] the “Transpiration rate (% of control)” value (1 mM urea alone, foliar, 1 day after treatment) was 103 % of control, the “Transpiration rate (% of control)” value (1 mM urea alone, foliar, 2 days after treatment) was 98 % of control and the “Transpiration rate (% of control)” value (1 mM urea alone, foliar, 3 days after treatment) was 98 % of control. The “Transpiration rate (% of control)” value (1 mM urea alone, foliar, 4 days after treatment) was 100 % of control, the “Transpiration rate (% of control)” value (10 mM urea alone, foliar, 1 day after treatment) was 101 % of control and the “Transpiration rate (% of control)” value (10 mM urea alone, foliar, 2 days after treatment) was 103 % of control. The “Transpiration rate (% of control)” value (10 mM urea alone, foliar, 3 days after treatment) was 106 % of control, the “Transpiration rate (% of control)” value (10 mM urea alone, foliar, 4 days after treatment) was 101 % of control and the “Transpiration rate (% of control)” value (100 mM urea alone, foliar, 1 day after treatment) was 102 % of control. For the same compound, the “Transpiration rate (% of control)” value (100 mM urea alone, foliar, 2 days after treatment) was 102 % of control, the “Transpiration rate (% of control)” value (100 mM urea alone, foliar, 3 days after treatment) was 107 % of control and the “Transpiration rate (% of control)” value (100 mM urea alone, foliar, 4 days after treatment) was 102 % of control. For the same compound, the “effect on tomato leaf transpiration (in words)” value (fertilizer or salt alone at 1, 10 or 100 mM, foliar) was “did not reduce tomato leaf transpiration”.

For “(S)-5-(1-hydroxy-2,6,6,-trimethyl-4-oxo-2-cyclohexen-1-yl)-3-methyl-(2Z,4E)-pentadienoic acid [ABA, reference compound]”, the “Transpiration rate (% of control), Average” value (in vivo) was 69 % of control and 78 % of control.
